{"source": "patent US20260306464A1", "about": "“LINAPRAZAN GLURATE FOR TREATING GASTROESOPHAGEAL REFLUX DISEASE (GERD)” (Cinclus Pharma Holding AB (publ), priority 2023, published 2026)", "key": {"[1]": {"assay": "LEED study: safety and tolerability (adverse events)", "conditions": "for COVID-19 (%) / COVID-19 events / Constipation (%) / Constipation events / Headache (%) / Headache events / Nausea (%) / Nausea events: TEAE"}, "[2]": {"conditions": "background statement; cited from earlier work"}, "[3]": {"assay": "LEED study: endoscopic healing of erosive esophagitis / LA grade improvement after 4 weeks", "type": "in vivo, human", "from_the_text": "The severity of esophagitis is typically indicated using the Los Angeles (LA) classification of reflux esophagitis, which is based on an endoscopic assessment of the patient. The LA grade scoring system divides reflux esophagitis into four categories (LA grade A to D) based on the extent of esophageal mucosal breaks. […] LA grade C esophagitis is defined as one or more mucosal breaks that are continuous between the tops of two mucosal folds, but which involves less than 75% of the esophageal circumference. The most severe form, LA grade D esophagitis, is defined as one or more mucosal breaks involving at least 75% of the esophageal circumference (Lundell et al., Gut 1999, vol. 45, p. 172-180).\nAs used herein, the terms “improvement of the LA grade” and “LA grade improvement” refer to one or more steps from one LA grade to a lower LA grade (such as from grade D to grade C, B or A) or to being healed. In some embodiments, the improvement of the LA grade is 1 step. In some embodiments, the improvement of the LA grade is 2 steps. In some embodiments, the improvement of the LA grade is 3 steps. In some embodiments, the improvement of the LA grade is 4 steps.\nThe study included patients with erosive esophagitis (eGERD). Patients were divided into two cohorts, one with patients having moderate to severe eGERD (LA grade C/D) and one with patients having milder eGERD (LA grade A/B) with a history of only partial response to PPI-treatment. The primary endpoint of the study was to support dose selection of linaprazan glurate for the phase III program in eGERD, through central assessment of healing of erosive esophagitis after four weeks of treatment. The sample size, i.e., the number of patients needed, for measuring dose related efficacy was based on the patient cohort with moderate to severe eGERD. After initial endoscopy and other screening procedures, 248 patients were randomized equally into one of five treatment groups, receiving either four weeks treatment with linaprazan glurate in four dose levels, or four weeks lansoprazole in the approved standard eGERD healing dose. Thereafter, an endoscopic evaluation of healing was performed, where healing was defined as no presence of esophageal erosions, i.e., no erosive damage to the esophageal mucosa. After the endoscopic evaluation, all patient groups received lansoprazole for four weeks in a maintenance phase. A retrospective central review of the endoscopy findings was performed, and 162 patients were available for evaluation of the primary endpoint. All enrolled 248 patients were included in the safety analysis.\nThe study was a randomized, double-blind, active comparator-controlled study with a parallel group design including four arms with linaprazan glurate and one arm with lansoprazole. Pharmacokinetic (PK) blood sampling pre-dose, close before the first and the second dose administration was performed at Day 7, Day 14 and Day 28 visits days in all patients. 248 patients with erosive esophagitis due to GERD LA grade C or D and patients with erosive esophagitis due to GERD LA grade A or B with at least partial symptom response but still endoscopically unhealed after 8 weeks history of standard treatment healing course with PPI, were randomized.\nRandomization to one of the treatments with linaprazan glurate 25 mg, 50 mg, 75 mg, 100 mg twice daily (BID), or lansoprazole 30 mg once daily (QD) was based on a 1:1:1:1:1 scheme. One site could not enroll more than about 20% of the overall number of patients (48 patients per site).\nThe duration of each patient's participation in the study, including screening, blind treatment period and open-label treatment period, was approximately 60 days. The patients were randomized for 4 weeks (28 days, −2/+5 days) of double-blind treatment and were provided with IMP for 35 days (including one additional blister pack dispensed at Visit 2/Day 0) to allow for treatment up to the visit window. […]"}, "intragastric pH": {"system": "intragastric pH", "assay": "Phase I: plasma concentration of linaprazan vs. intragastric pH", "type": "in vivo, human", "conditions": "Phase I studies", "from_the_text": "The plasma concentration of linaprazan glurate is only very low and difficult to determine, but the plasma concentration of linaprazan may be determined instead."}, "[4]": {"system": "gastric hydrogen potassium pump (H+/K+ ATPase)", "conditions": "healthy subjects; cited from earlier work"}, "[5]": {"conditions": "LA grade C/D, LG 100 mg BID, 4 weeks"}}, "data": [{"smiles": "Cc1cccc(C)c1CNc1cc(C(=O)NCCOC(=O)CCCC(=O)O)cn2c(C)c(C)nc12", "note": "[linaprazan glurate, 5-{2-[({8-[(2,6-dimethylbenzyl)amino]-2,3-dimethylimidazo[1,2-a]pyridine-6-yl}carbonyl)-amino]ethoxy}-5-oxopentanoic acid]", "values": [{"measurement": "safety data vs lansoprazole", "setting": "[1]; LG 25-100 mg BID", "result": "comparable to that of lansoprazole"}, {"measurement": "tolerability", "setting": "[1]; LG 25-100 mg BID", "result": "generally well tolerated"}, {"measurement": "COVID-19 (%)", "setting": "[1]; LG 25 mg BID", "result": 2.0, "unit": "%"}, {"measurement": "COVID-19 events", "setting": "[1]; LG 25 mg BID", "result": 1, "unit": "events"}, {"measurement": "Constipation (%)", "setting": "[1]; LG 25 mg BID", "result": 3.9, "unit": "%"}, {"measurement": "Constipation events", "setting": "[1]; LG 25 mg BID", "result": 2, "unit": "events"}, {"measurement": "Headache (%)", "setting": "[1]; LG 25 mg BID", "result": 2.0, "unit": "%"}, {"measurement": "Headache events", "setting": "[1]; LG 25 mg BID", "result": 1, "unit": "events"}, {"measurement": "Nausea (%)", "setting": "[1]; LG 25 mg BID", "result": 2.0, "unit": "%"}, {"measurement": "Nausea events", "setting": "[1]; LG 25 mg BID", "result": 1, "unit": "events"}, {"measurement": "COVID-19 (%)", "setting": "[1]; LG 50 mg BID", "result": 4.2, "unit": "%"}, {"measurement": "COVID-19 events", "setting": "[1]; LG 50 mg BID", "result": 2, "unit": "events"}, {"measurement": "Constipation (%)", "setting": "[1]; LG 50 mg BID", "result": 2.1, "unit": "%"}, {"measurement": "Constipation events", "setting": "[1]; LG 50 mg BID", "result": 1, "unit": "events"}, {"measurement": "Headache (%)", "setting": "[1]; LG 50 mg BID", "result": 6.3, "unit": "%"}, {"measurement": "Headache events", "setting": "[1]; LG 50 mg BID", "result": 3, "unit": "events"}, {"measurement": "Nausea (%)", "setting": "[1]; LG 50 mg BID", "result": 0.0, "unit": "%"}, {"measurement": "Nausea events", "setting": "[1]; LG 50 mg BID", "result": 0, "unit": "events"}, {"measurement": "COVID-19 (%)", "setting": "[1]; LG 75 mg BID", "result": 1.9, "unit": "%"}, {"measurement": "COVID-19 events", "setting": "[1]; LG 75 mg BID", "result": 1, "unit": "events"}, {"measurement": "Constipation (%)", "setting": "[1]; LG 75 mg BID", "result": 3.8, "unit": "%"}, {"measurement": "Constipation events", "setting": "[1]; LG 75 mg BID", "result": 2, "unit": "events"}, {"measurement": "Headache (%)", "setting": "[1]; LG 75 mg BID", "result": 1.9, "unit": "%"}, {"measurement": "Headache events", "setting": "[1]; LG 75 mg BID", "result": 1, "unit": "events"}, {"measurement": "Nausea (%)", "setting": "[1]; LG 75 mg BID", "result": 0.0, "unit": "%"}, {"measurement": "Nausea events", "setting": "[1]; LG 75 mg BID", "result": 0, "unit": "events"}, {"measurement": "COVID-19 (%)", "setting": "[1]; LG 100 mg BID", "result": 8.5, "unit": "%"}, {"measurement": "COVID-19 events", "setting": "[1]; LG 100 mg BID", "result": 4, "unit": "events"}, {"measurement": "Constipation (%)", "setting": "[1]; LG 100 mg BID", "result": 0.0, "unit": "%"}, {"measurement": "Constipation events", "setting": "[1]; LG 100 mg BID", "result": 0, "unit": "events"}, {"measurement": "Headache (%)", "setting": "[1]; LG 100 mg BID", "result": 2.1, "unit": "%"}, {"measurement": "Headache events", "setting": "[1]; LG 100 mg BID", "result": 1, "unit": "events"}, {"measurement": "Nausea (%)", "setting": "[1]; LG 100 mg BID", "result": 0.0, "unit": "%"}, {"measurement": "Nausea events", "setting": "[1]; LG 100 mg BID", "result": 0, "unit": "events"}, {"measurement": "plasma half-life", "setting": "[2]", "result": "approximately 10 hours"}, {"measurement": "healing rate vs lansoprazole", "setting": "[3]; 4-week treatment vs 30 mg/day lansoprazole", "result": "significantly higher healing rates"}, {"measurement": "dose response in the healing rates", "setting": "[3]; 4 weeks, LG 25-100 mg BID", "result": "clear dose response"}, {"measurement": "healing rate of eGERD", "setting": "[3]; 25, 50, 75 or 100 mg twice daily for 4 weeks", "result": "high healing rates"}, {"measurement": "highest four-week healing rate in a linaprazan glurate dosing group", "setting": "[3]; LA grade A/B, 4 weeks, BID", "result": 91, "unit": "%"}, {"measurement": "mean healing rate, all patients treated with linaprazan glurate", "setting": "[3]; LA grade A/B/C/D, 4 weeks, all LG doses, FIG. 8", "result": 80, "unit": "%"}, {"measurement": "highest mean LA grade improvement in a linaprazan glurate dosing group", "setting": "[3]; LA grade C/D, 4 weeks, BID, FIG. 5", "result": 3.1}, {"measurement": "LA grade improvement of all LG-treated patients vs lansoprazole", "setting": "[3]; LA grade C/D, 4 weeks, all LG doses", "result": "higher than lansoprazole"}, {"measurement": "highest four-week healing rate in a linaprazan glurate dosing group", "setting": "[3]; LA grade C/D, 4 weeks, FIG. 6 (all LG dose group), FIG. 7 (LG 75 mg dose group)", "result": 89, "unit": "%"}, {"measurement": "patients whose 4-week LA grade was A", "setting": "[3]; [5]", "result": "6 out of 7"}, {"measurement": "response in the 100 mg dose group", "setting": "[3]; [5]", "result": "lower than expected"}, {"measurement": "healing rate of all LG-treated patients vs lansoprazole", "setting": "[3]; LA grade C/D, post-hoc analysis, Fisher's exact test", "result": "significantly higher than lansoprazole"}, {"measurement": "mean harmonic p-value, healing rate LG vs lansoprazole", "setting": "[3]; LA grade C/D, post-hoc, Fisher's exact test", "result": 0.0404}, {"measurement": "pH control", "setting": "intragastric pH", "result": "dose dependent"}, {"measurement": "intragastric pH two hours after the first dose", "setting": "[4]", "result": "Neutral intragastric pH"}]}]}
